Source: US20240208992A1, “MACROCYCLES AS CFTR MODULATORS” (Idorsia Pharmaceuticals Ltd, priority 2021, published 2024)

Molecular target: human F508del-CFTR (Homo sapiens, UniProt P13569, DEL508-508)
Test: F508del-CFTR cell surface expression (corrector activity), DiscoveRx ß-galactosidase complementation chemiluminescence assay in recombinant U2OS cell line;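 note: U2OS cells co-expressing ProLink-tagged F508del-CFTR and a membrane-anchored enzyme acceptor, where more surface CFTR restores β-galactosidase activity measured by chemiluminescence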
Conditions: for Emax: U2OS, arithmetic mean values; for EC50: EC50, F508del-CFTR cell surface expression, U2OS cells, geomean values
[1] = in relation to Emax of corrector lumacaftor (=100%)

Chain of human F508del-CFTR (P13569 with tags, fused parts or gaps DEL508-508): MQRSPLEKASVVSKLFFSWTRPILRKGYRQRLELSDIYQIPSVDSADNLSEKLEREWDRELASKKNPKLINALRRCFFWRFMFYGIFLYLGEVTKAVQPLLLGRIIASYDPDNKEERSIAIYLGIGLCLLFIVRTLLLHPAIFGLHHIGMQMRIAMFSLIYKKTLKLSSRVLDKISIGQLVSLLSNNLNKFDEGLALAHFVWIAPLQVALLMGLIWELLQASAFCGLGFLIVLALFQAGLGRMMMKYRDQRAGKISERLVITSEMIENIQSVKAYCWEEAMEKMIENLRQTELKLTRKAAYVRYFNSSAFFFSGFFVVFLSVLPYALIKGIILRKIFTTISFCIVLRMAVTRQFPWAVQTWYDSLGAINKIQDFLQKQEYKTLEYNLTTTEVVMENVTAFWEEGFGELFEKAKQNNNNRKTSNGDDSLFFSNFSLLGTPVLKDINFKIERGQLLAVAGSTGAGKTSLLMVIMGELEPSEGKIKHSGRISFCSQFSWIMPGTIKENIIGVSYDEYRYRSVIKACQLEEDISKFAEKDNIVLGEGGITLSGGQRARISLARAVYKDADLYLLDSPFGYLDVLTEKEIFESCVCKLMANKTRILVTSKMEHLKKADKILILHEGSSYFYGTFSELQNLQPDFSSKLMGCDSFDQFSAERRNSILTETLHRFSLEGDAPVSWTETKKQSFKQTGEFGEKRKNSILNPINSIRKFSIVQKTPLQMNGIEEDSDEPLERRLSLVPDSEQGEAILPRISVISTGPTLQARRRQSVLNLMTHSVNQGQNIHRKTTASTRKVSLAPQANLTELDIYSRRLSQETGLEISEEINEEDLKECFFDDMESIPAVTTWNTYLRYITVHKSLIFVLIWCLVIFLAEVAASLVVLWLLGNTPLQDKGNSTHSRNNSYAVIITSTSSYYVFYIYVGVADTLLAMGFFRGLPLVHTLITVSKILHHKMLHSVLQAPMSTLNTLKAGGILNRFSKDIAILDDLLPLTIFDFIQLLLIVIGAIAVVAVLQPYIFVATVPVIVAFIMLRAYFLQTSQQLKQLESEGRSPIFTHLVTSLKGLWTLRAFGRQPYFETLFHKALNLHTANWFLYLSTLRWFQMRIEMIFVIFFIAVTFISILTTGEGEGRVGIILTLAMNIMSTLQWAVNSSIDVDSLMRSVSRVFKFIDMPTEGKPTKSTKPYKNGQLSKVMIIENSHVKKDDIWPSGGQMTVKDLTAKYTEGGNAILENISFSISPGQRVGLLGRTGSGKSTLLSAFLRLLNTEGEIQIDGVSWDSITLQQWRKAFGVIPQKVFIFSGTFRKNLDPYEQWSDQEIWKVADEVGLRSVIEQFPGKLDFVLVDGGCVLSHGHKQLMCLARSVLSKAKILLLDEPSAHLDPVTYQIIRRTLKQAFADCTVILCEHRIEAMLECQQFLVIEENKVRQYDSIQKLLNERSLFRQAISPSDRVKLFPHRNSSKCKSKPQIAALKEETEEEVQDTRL

Q: How did the Emax (in relation to the Emax of the corrector lumacaftor (=100%), U2OS cell line, 16h compound incubation) turn out when `COc1cccc(CCNC(=O)[C@@H]2CC(=O)N(C)[C@@H](CC(C)C)C(=O)N(C[C@H]3CCCCO3)CC(=O)N[C@H](Cc3ccccc3)COc3ccc4ccccc4c3C(=O)N2)c1` (racemic) [Example 164, (3RS,7S,13R)-13-benzyl-7-isobutyl-N-(3-methoxyphenethyl)-6-methyl-1,5,8,11-tetraoxo-9-(((R)-tetrahydro-2H-pyran-2-yl)methyl)-1,2,3,4,5,6,7,8,9,10,11,12,13,14-tetradecahydronaphtho[1,2-p][1]oxa[4,7,10,14]tetraazacycloheptadecine-3-carboxamide] was run?
A: Its Emax is 167%.

Q: Which Emax [1] does the source give for `COc1cccc(CCNC(=O)[C@@H]2CC(=O)N(C)[C@@H](CC(C)C)C(=O)N(C)[C@@H](CO)C(=O)N[C@H](Cc3ccccc3)COc3ccc4ccccc4c3C(=O)N2)c1` (racemic) [Example 718, (3S,7S,10RS,13R)-13-benzyl-10-(hydroxymethyl)-7-isobutyl-N-(3-methoxyphenethyl)-6,9-dimethyl-1,5,8,11-tetraoxo-1,2,3,4,5,6,7,8,9,10,11,12,13,14-tetradecahydronaphtho[1,2-p][1]oxa[4,7,10,14]tetraazacycloheptadecine-3-carboxamide] here?
A: The Emax was 272%.

Q: Which results are given for `COc1cc2c(cn1)OC[C@@H](Cc1ccccc1)NC(=O)[C@H]1CCCCN1C(=O)[C@H](CC(C)C)N(C)C(=O)C[C@@H](C(=O)NCCc1nc(C3CC3)no1)NC2=O` [Example 529, (7S,11S,17aR,20R)-20-benzyl-N-(2-(3-cyclopropyl-1,2,4-oxadiazol-5-yl)ethyl)-11-isobutyl-3-methoxy-10-methyl-5,9,12,18-tetraoxo-5,6,7,8,9,10,11,12,15,16,17,17a,18,19,20,21-hexadecahydro-14H-dipyrido[2,1-f:2′,3′-p][1]oxa[4,7,10,14]tetraazacycloheptadecine-7-carboxamide]?
A: EC50 (16h compound incubation): 947 nM; Emax [1]: 206%

Q: With `COc1nccc2c1C(=O)N[C@H](C(=O)NCCc1cc(C)no1)CC(=O)N(C)[C@@H](CC(C)C)C(=O)N1CCCC[C@@H]1C(=O)N[C@H](Cc1ccccc1)CO2` [Example 477, (7S,11S,17aR,20R)-20-benzyl-11-isobutyl-4-methoxy-10-methyl-N-(2-(3-methylisoxazol-5-yl)ethyl)-5,9,12,18-tetraoxo-5,6,7,8,9,10,11,12,15,16,17,17a,18,19,20,21-hexadecahydro-14H-dipyrido[2,1-f:3′,4′-p][1]oxa[4,7,10,14]tetraazacycloheptadecine-7-carboxamide] as the compound, how does the EC50 (16h compound incubation) read?
A: Its EC50 is 754 nM.

Q: What about the Emax [1] of the same compound?
A: Its Emax is 327%.

Q: What does the source list for `Cc1cc(CCNC(=O)[C@@H]2CC(=O)N(C)[C@@H](CC(C)C)C(=O)N(CC[C@@H]3CCCCO3)CC(=O)N[C@H](Cc3ccccc3)COc3cnc4ccccc4c3C(=O)N2)on1` [Example 446, (3S,7S,13R)-13-benzyl-7-isobutyl-6-methyl-N-(2-(3-methylisoxazol-5-yl)ethyl)-1,5,8,11-tetraoxo-9-(2-((S)-tetrahydro-2H-pyran-2-yl)ethyl)-1,2,3,4,5,6,7,8,9,10,11,12,13,14-tetradecahydro-[1]oxa[4,7,10,14]tetraazacycloheptadecino[17,16-c]quinoline-3-carboxamide]?
A: EC50 (16h compound incubation): 900 nM; Emax [1]: 248%

Q: Which EC50 (16h compound incubation) does the source give for `Cc1cc(CCNC(=O)[C@@H]2CC(=O)N(C)[C@@H](CC(C)C)C(=O)N(CC3Cc4ccccc4O3)CC(=O)N[C@H](Cc3ccccc3)COc3cnc4ccccc4c3C(=O)N2)on1` (stereo partly drawn) [Example 702, (3S,7S,13R)-13-benzyl-9-((2,3-dihydrobenzofuran-2-yl)methyl)-7-isobutyl-6-methyl-N-(2-(3-methylisoxazol-5-yl)ethyl)-1,5,8,11-tetraoxo-1,2,3,4,5,6,7,8,9,10,11,12,13,14-tetradecahydro-[1]oxa[4,7,10,14]tetraazacycloheptadecino[17,16-c]quinoline-3-carboxamide] here?
A: The EC50 was 295 nM.

Q: What about the Emax [1] of the same compound?
A: Its Emax is 162%.
